Laboratory results reported in patent publication US7186879B2, “Screening systems and methods for identifying modulators of xenobiotic metabolism” (Baylor College of Medicine, priority 2001, dated 2007).
“Also recorded” adds a separate entry of the source.

Experiments:
[1] = system: wild-type and CAR knockout mice; test: APAP toxicity after pretreatment with inducers (serum ALT, histology); type: in vivo, mouse; conditions: mouse, in vivo
Experimental: (§1) CAR (+/+) or CAR (−/−) animals pretreated with phenobarbital (PB), TCPOBOP (TC), or vehicle alone were administered a 250 mg/kg dose of APAP by intraperitoneal injection (n=5–7 per treatment group) (FIG. 11A). Serum was collected and alanine aminotransferase (ALT) levels were measured after 24 hours. Liver sections from different treatments were examined by histological staining (FIG. 11B). Liver samples from all treated animals were analyzed but only representative histology is presented. […] CAR (+/+) or CAR (−/−) animals were pretreated with PB, TCPOBOP (TC), or vehicle alone for three days (FIG. 11C). […] Liver samples treated as indicated were collected two hours after APAP and GSH levels were measured (n=5–7) (FIG. 11D).
The effect of PB and the potent CAR agonist TCPOBOP on APAP toxicity was examined in wild-type and CAR knockout mice. Both strains of mice were treated with inducers or the vehicle control, followed by 250 mg/kg APAP. For these studies, mice were kept in a pathogen-free animal facility under standard 12 hour light/12 hour dark cycle and fed standard rodent chow and water ad libitum. At least five mice between 8 and 10 weeks old were used in each treatment group. For 3-day PB (100 mg/kg) treatment, mice were injected intraperitoneally three times, one injection per day. TCPOBOP (3 mg/kg) and/or APAP were injected intraperitoneally. Phenobarbital and TCPOBOP were suspended or dissolved in corn oil, and APAP was dissolved in basic PBS (pH=11). PB and APAP were purchased from Sigma (St Louis, Mo.); TCPOBOP was a gift from Dr. Stephen Safe.
For histologic examination of the treated mice, the left lobe of the livers was removed and immediately fixed in 4% formaldehyde-PBS solution, embedded in paraffin, sectioned at 5 μm, and stained with hematoxylin and eosin. Samples were examined under a light microscope. For RNA studies, total RNA was extracted using TRIzol Reagent (Invitrogen Life Technologies, Carlsbad, Calif.) according to the manufacture's instruction. Equivalent amount of RNA from 3–5 mice were pooled and 10 μg of each sample was subjected to northern blot analysis. […] Preparation of probes for CYP2B10 and CYP3A11 were described as previously (Wei et al., Nature 407:920–923, 2000 and Zelko et al., Mol Cell Biol 21:2838–2846, 2001). PCR primers used were: CYP1A2: 5′-[…]-3′ (SEQ ID NO: 19) and 5′-[…]-3′ (SEQ ID NO: 20), CYP2E1: 5′-[…]-3′ (SEQ ID NO: 21) and 5′-[…]-3′ (SEQ ID NO: 22), GSTPi: 5′-[…]-3′ (SEQ ID NO: 23) and 5′-[…]-3′ (SEQ ID NO: 24). Hepatic non-protein thiol was measured as an indication of hepatic GSH content. Mice were sacrificed two hours after intraperitoneal injection with APAP. Livers were removed and immediately homogenized in four volumes of 5% trichloroacetic acid and then centrifuged at 1,600×g for 15 minutes. Supernatant (0.5 ml) was mixed with 1.5 ml 0.1 mM Ellman's reagent [5,5′-dithio-bis(2-nitrobenzoic acid)] (Sigma, St Louis, Mo.) and allowed to stand at room temperature for 15 minutes. Absorbance was read at 412 nm using GSH solutions as quantitative standards.

PXR = target: T1, PXR (Mus musculus, UniProt O54915); conditions: cited from earlier work
T1 sequence (O54915 1-431): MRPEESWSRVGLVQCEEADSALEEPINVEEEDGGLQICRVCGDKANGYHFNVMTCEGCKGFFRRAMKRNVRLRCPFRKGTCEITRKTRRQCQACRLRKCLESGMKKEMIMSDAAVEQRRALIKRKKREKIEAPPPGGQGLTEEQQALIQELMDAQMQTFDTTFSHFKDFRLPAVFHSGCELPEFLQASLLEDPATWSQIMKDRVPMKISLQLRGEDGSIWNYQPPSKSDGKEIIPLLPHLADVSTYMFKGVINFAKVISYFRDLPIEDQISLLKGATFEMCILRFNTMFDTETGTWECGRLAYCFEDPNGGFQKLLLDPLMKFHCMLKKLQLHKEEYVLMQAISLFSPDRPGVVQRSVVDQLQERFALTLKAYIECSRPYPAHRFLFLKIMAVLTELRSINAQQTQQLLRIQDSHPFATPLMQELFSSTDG

[2] = system: CYP2E1, CYP1A2, CYP3A11, GSTPi; test: Northern blot of APAP metabolizing genes in liver of wild-type and CAR null mice; conditions: mouse, in vivo, 500 mg/kg, 2 h
Experimental: as §1, with “Serum was collected and alanine aminotransferase (ALT) levels were measured after 24 hours.” left out
CAR (+/+) and CAR (−/−) animals were given 250 mg/kg, 500 mg/kg, or 800 mg/kg doses of APAP, respectively (FIG. 12A). […] Total liver RNA was prepared from 500 mg/kg APAP treated CAR (+/+) and CAR (−/−) livers at 0 and 2 hours as indicated. […] The same blot was stripped and re-probed with β-actin as loading control.
For histologic examination of the treated mice, the left lobe of the livers was removed and immediately fixed in 4% formaldehyde-PBS solution, embedded in paraffin, sectioned at 5 μm, and stained with hematoxylin and eosin. Samples were examined under a light microscope. For RNA studies, total RNA was extracted using TRIzol Reagent (Invitrogen Life Technologies, Carlsbad, Calif.) according to the manufacture's instruction. Equivalent amount of RNA from 3–5 mice were pooled and 10 μg of each sample was subjected to northern blot analysis. […] Hepatic non-protein thiol was measured as an indication of hepatic GSH content. Mice were sacrificed two hours after intraperitoneal injection with APAP. […] Supernatant (0.5 ml) was mixed with 1.5 ml 0.1 mM Ellman's reagent [5,5′-dithio-bis(2-nitrobenzoic acid)] […] Absorbance was read at 412 nm using GSH solutions as quantitative standards.

murine CAR receptor [3] = target: T2, murine CAR receptor (Mus musculus, UniProt O35627); test: Ligand activity on murine CAR receptor
T2 sequence (O35627 1-358 M138L): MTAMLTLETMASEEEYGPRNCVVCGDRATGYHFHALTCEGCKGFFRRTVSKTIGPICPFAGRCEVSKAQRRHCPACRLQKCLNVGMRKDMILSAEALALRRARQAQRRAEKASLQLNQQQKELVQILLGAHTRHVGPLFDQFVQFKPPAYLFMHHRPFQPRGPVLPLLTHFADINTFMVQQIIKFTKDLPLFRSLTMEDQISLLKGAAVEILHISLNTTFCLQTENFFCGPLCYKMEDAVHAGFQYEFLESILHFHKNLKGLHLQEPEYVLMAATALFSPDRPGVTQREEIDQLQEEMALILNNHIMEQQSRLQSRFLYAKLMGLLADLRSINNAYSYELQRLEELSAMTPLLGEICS

human CAR [4] = target: T3, human CAR (Homo sapiens, UniProt Q14994); test: Northern blot of gene induction in CAR humanized mice; conditions: 500 mg/kg
T3 sequence (Q14994 1-348 isoform Q14994-2): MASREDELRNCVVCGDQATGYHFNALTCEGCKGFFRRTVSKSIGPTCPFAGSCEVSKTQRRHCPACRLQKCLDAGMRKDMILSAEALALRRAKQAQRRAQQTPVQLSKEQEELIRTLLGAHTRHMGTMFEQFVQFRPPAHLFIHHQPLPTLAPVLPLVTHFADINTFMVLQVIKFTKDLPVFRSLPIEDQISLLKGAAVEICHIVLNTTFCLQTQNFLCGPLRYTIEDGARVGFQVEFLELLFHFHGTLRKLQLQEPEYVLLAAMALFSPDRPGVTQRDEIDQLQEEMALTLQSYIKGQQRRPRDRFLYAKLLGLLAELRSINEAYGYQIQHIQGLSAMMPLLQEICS
Experimental: CAR humanized mice (n=3) were treated with 500 mg/kg APAP or vehicle. After two hours, total liver RNA was prepared and subjected to Northern blot analysis with indicated probes.

human CAR [5] = target: T3, human CAR; conditions: cited from earlier work
CAR [6] = target: T4, CAR (Mus musculus, UniProt O35627); test: Hepatoprotection after APAP (serum ALT, histology)
T4 sequence (O35627 1-358 M138L): T2 sequence (O35627 1-358 M138L)
Experimental: (§2) Wild-type mice (n=3 per group) were administered a 500 mg/kg dose of APAP by intraperitoneal injection.
(§3) For comparison, N-acetylcysteine (1 g/kg, purchased from Sigma and dissolved in PBS) was administered intraperitoneally to other mice.

CAR [7] = target: T5, CAR (Mus musculus, UniProt O35627, M138L); test: Hepatoprotection after APAP (serum ALT, histology); conditions: for protective effect, androstanol compared with N-acetylcysteine: wild-type mice, one and three hours after APAP 500 mg/kg, androstanol 100 mg/kg, N-acetylcysteine 1 g/kg
T5 sequence (O35627 1-358 M138L): T2 sequence (O35627 1-358 M138L)
Experimental: as §2, §3

CAR [8] = test: Hepatoprotection after APAP (serum ALT, histology)
Experimental: as §2, §3

murine CAR receptor [9] = target: T6, murine CAR receptor (Mus musculus, UniProt O35627, M138L); conditions: cited from earlier work
T6 sequence (O35627 1-358 M138L): T2 sequence (O35627 1-358 M138L)

[10] = system: wild-type and CAR null mice; conditions: mouse, in vivo
Description: To rule out the possibility that the CAR knockout animals are somehow resistant to NAPQI, the metabolite was directly injected into the livers of both wild-type and CAR null mice, and serum ALT levels were increased 5 to 10 fold in both. Thus, that both increased NAPQI production and GSH depletion may contribute to xenobiotic induced APAP toxicity.

[11] = CAR humanized mice, two hours, densitometry

CC(=O)[C@H]1[C@H](C#N)C[C@H]2[C@@H]3CC=C4C[C@@H](O)CC[C@]4(C)[C@H]3CC[C@@]21C [PCN, 5-pregnen-3b-ol-20-one-16a-carbonitrile]
sensitivity to APAP [1]: increase in sensitivity to APAP comparable to that observed with TCPOBOP pretreatment
PXR agonism (PXR): strong PXR agonist

CC(=O)Nc1ccc(O)cc1 [APAP, N-acetyl-p-aminophenol]
induction of CYP1A2 mRNA [2]: approximately 2.8 fold
induction of CYP3A11 mRNA [2]: ~4.4 fold
induction of GSTPi mRNA [2]: ~3.9 fold
CAR agonist function (murine CAR receptor [3]): neither APAP nor NAPQI functions as a CAR agonist
activation of human CAR (human CAR [4]; CAR humanized mice): human CAR is activated by APAP
induction of CYP1A2 mRNA (human CAR [4]; [11]): 1.8 fold
induction of CYP3A11 mRNA (human CAR [4]; [11]): 2.4 fold
induction of GSTPi mRNA (human CAR [4]; [11]): 1.8 fold
expression of CYP1A2, CYP3A11 and GSTPi (human CAR [4]; humanized mice): increased expression

Clc1ccccc1C(c1ccccc1)(c1ccccc1)n1ccnc1 [clotrimazole]
activity on human CAR receptor (human CAR [5]): inverse agonist of human

C[C@@]12CCC[C@H]1[C@@H]1CC[C@H]3C[C@H](O)CC[C@]3(C)[C@H]1CC2 [androstanol, 5α-androstan-3α-ol]
APAP toxicity after pretreatment (CAR [6]; wild-type mice): decreases APAP toxicity
serum ALT, treatment three hours after APAP (CAR [6]; wild-type mice relative to untreated wild-type): somewhat lower serum ALT levels
hepatotoxicity, treatment one hour after APAP (CAR [6]; wild-type mice, APAP 500 mg/kg, androstanol 100 mg/kg i.p.): blocked hepatotoxicity; also recorded: nearly complete absence of hepatotoxicity
protective effect, treatment five hours after APAP (CAR [7]; relative to wild-type control): no protective effect
protective effect, androstanol compared with N-acetylcysteine (CAR [7]): very similar
hepatotoxicity, treatment after APAP (CAR [8]; CAR knockout animals, APAP 500 mg/kg, androstanol 100 mg/kg i.p.): did not block toxicity
serum ALT, androstanol and APAP versus APAP alone (CAR [8]; CAR −/− animals): somewhat higher
ALT levels, CAR (+/+) versus CAR (−/−) animals (CAR [8]; androstanol at one and three hours after APAP 500 mg/kg): significantly lower ALT levels
activity on human CAR receptor (human CAR [5]): not human CAR
activity on murine CAR receptor (murine CAR receptor [9]): can be blocked

CC(=O)N=C1C=CC(=O)C=C1 [NAPQI, N-acetyl-p-benzoquinone imine]
increase of serum ALT levels [10]: 5-10 fold
CAR agonist function (murine CAR receptor [3]): neither APAP nor NAPQI functions as a CAR agonist

CC(=O)N[C@@H](CS)C(=O)O [N-acetylcysteine]
protective effect, androstanol compared with N-acetylcysteine (CAR [7]): very similar
